According to US8163929B2, “Dihydropyridone amides as P2X7 modulators” (Roche Palo Alto LLC, priority 2008, dated 2012):

biological target: T1, P2X7 (UniProt Q99572); experiment: P2X7 activity of Table 1; format: cell-based; conditions: pIC50 values for P2X7
T1 sequence (Q99572 1-595): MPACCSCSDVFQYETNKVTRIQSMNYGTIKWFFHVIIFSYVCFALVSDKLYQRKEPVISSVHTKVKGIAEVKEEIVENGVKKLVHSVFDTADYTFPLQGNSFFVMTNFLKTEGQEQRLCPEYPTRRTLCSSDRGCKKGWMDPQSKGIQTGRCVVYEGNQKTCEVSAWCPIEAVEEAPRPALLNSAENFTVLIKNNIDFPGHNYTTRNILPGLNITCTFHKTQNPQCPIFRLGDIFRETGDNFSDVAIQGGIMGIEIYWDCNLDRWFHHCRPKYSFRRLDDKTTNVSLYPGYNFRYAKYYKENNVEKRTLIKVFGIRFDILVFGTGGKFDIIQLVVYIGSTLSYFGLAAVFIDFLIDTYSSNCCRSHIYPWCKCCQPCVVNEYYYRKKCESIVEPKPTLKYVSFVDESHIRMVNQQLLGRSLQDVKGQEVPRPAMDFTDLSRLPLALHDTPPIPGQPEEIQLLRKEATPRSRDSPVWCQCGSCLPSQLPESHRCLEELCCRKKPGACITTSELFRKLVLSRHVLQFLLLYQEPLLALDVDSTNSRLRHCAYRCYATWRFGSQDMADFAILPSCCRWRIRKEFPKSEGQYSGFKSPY
Experimental: Stock solutions of compounds were prepared from powders as a 10 mM DMSO stock solution. These solutions were stored at RT during the two week period of these experiments to prevent freeze-thaw of the DMSO stocks. The DMSO stocks were added to the appropriate assay buffer at a concentration of 10 μM, and then diluted serially to the final concentrations that were tested. […] The aqueous solutions of compounds as well as ATP (Sigma A7699) and BzATP (Sigma B6396) were prepared fresh for each day of experiment.
1321N1 cells stably expressing the full length human P2X7 gene (1321N1-hP2X7) and HEK293 cells stably expressing the full length rat P2X7 gene (HEK293-rP2X7) were obtained from the Roche Cell Culture Facility. 1321N1-hP2X7 cells were grown in Dulbecco's Modified Eagle's Medium (DMEM) high glucose supplemented with 10% FBS and 250 μg/mL G418. HEK293-rP2X7 cells were grown in DMEM/F-12 supplemented with 10% FBS, 1 mM CaCl2, 2 mM MgCl2, 2 mM L-Glutamine and 500 μg/ml G418. Cells were split such that they never became >70% confluent.
On the day prior to the experiment, 1321N1-hP2X7 or HEK293-rP2X7 cells were released into suspension with calcium-free PBS+Versene and washed by centrifugation with calcium-free PBS to remove the Versene. Cells were resuspended in growth medium at a density of 2.5×10^5 cells/mL and seeded into black walled, clear bottom 96 well plates (50,000 cells/well) approximately 18 hr prior to intracellular calcium flux experiments.
On the day of the experiment, plates were washed with FLIPR buffer (calcium- and magnesium-free Hank's Balanced Salt Solution (HBSS) supplemented with 10 mM Hepes, 2.5 mM probenecid and 2 mM calcium chloride) using a BIO-TEK 96 channel plate washer and incubated with […] fluo-3 dye at 37° C. for one hr. The dye was then removed by plate washing and the cells were allowed to equilibrate for 20 min at room temperature with antagonist or vehicle (FLIPR buffer). Agonist (100 μM BzATP final concentration for hP2X7; 5 μM BzATP final concentration or rP2X7) was added online with the FLIPR and fluorescence measurements made at 1 sec intervals for 60 sec followed by 3 sec intervals for a further 4 min (5 min total). A final addition of 5 μM ionomycin was made and the maximal BzATP-evoked fluorescence normalized to the maximal ionomycin-evoked fluorescence.

pIC50 | SMILES
6.3 | Cc1ccc(N2CCOCC2)cc1NC(=O)C1=CNC(=O)C[C@H]1c1ccc(F)cc1 [Compound 47, (S)-4-(4-Fluoro-phenyl)-6-oxo-1,4,5,6-tetrahydro-pyridine-3-carboxylic acid (2-methyl-5-morpholin-4-yl-phenyl)-amide]
5.86 | COCCn1c(C)nnc1-c1ccc(C)c(NC(=O)C2=CNC(=O)C[C@H]2c2ccc(F)cc2)c1 [Compound 48, (S)-4-(4-Fluoro-phenyl)-6-oxo-1,4,5,6-tetrahydro-pyridine-3-carboxylic acid {5-[4-(2-methoxy-ethyl)-5-methyl-4H-[1,2,4]triazol-3-yl]-2-methyl-phenyl}-amide]
6.855 | Cc1cn(-c2ccc(C)c(NC(=O)C3=CNC(=O)C[C@H]3c3ccc(F)cc3)c2)cn1 [Compound 49, (S)-4-(4-Fluoro-phenyl)-6-oxo-1,4,5,6-tetrahydro-pyridine-3-carboxylic acid [2-methyl-5-(4-methyl-imidazol-1-yl)-phenyl]-amide]
7.145 | CCOC(=O)Cn1nc(-c2ccc(C)c(NC(=O)C3=CNC(=O)C[C@H]3c3ccc(F)cc3)c2)cc1C [Compound 50, [3-(3-{[(S)-4-(4-Fluoro-phenyl)-6-oxo-1,4,5,6-tetrahydro-pyridine-3-carbonyl]-amino}-4-methyl-phenyl)-5-methyl-pyrazol-1-yl]-acetic acid ethyl ester]
7.87 | Cc1ccc(-c2ncccn2)cc1NC(=O)C1=CNC(=O)C[C@H]1c1ccc(F)cc1 [Compound 51, (S)-4-(4-Fluoro-phenyl)-6-oxo-1,4,5,6-tetrahydro-pyridine-3-carboxylic acid (2-methyl-5-pyrimidin-2-yl-phenyl)-amide]
6.425 | Cc1ccc(-c2cncnc2)cc1NC(=O)C1=CNC(=O)C[C@H]1c1ccc(F)cc1 [Compound 52, (S)-4-(4-Fluoro-phenyl)-6-oxo-1,4,5,6-tetrahydro-pyridine-3-carboxylic acid (2-methyl-5-pyrimidin-5-yl-phenyl)-amide]
7.325 | Cc1nccc(-c2ccc(C)c(NC(=O)C3=CNC(=O)C[C@H]3c3ccc(F)cc3)c2)n1 [Compound 53, (S)-4-(4-Fluoro-phenyl)-6-oxo-1,4,5,6-tetrahydro-pyridine-3-carboxylic acid [2-methyl-5-(2-methyl-pyrimidin-4-yl)-phenyl]-amide]
7.045 | Cc1cc(-c2ccc(C)c(NC(=O)C3=CNC(=O)C[C@H]3c3ccc(F)cc3)c2)ccn1 [Compound 54, (S)-4-(4-Fluoro-phenyl)-6-oxo-1,4,5,6-tetrahydro-pyridine-3-carboxylic acid [2-methyl-5-(2-methyl-pyridin-4-yl)-phenyl]-amide]
7.54 | Cc1ccc(-c2c(Cl)cn[nH]c2=O)cc1NC(=O)C1=CNC(=O)C[C@H]1c1ccc(F)cc1 [Compound 55, (S)-4-(4-Fluoro-phenyl)-6-oxo-1,4,5,6-tetrahydro-pyridine-3-carboxylic acid [5-(5-chloro-3-oxo-2,3-dihydro-pyridazin-4-yl)-2-methyl-phenyl]-amide]
8.256 | Cc1ccc(-c2ccn[nH]c2=O)cc1NC(=O)C1=CNC(=O)C[C@H]1c1ccc(F)cc1 [Compound 56, (S)-4-(4-Fluoro-phenyl)-6-oxo-1,4,5,6-tetrahydro-pyridine-3-carboxylic acid [2-methyl-5-(3-oxo-2,3-dihydro-pyridazin-4-yl)-phenyl]-amide]
8.06 | Cc1ccc(-c2cscn2)cc1NC(=O)C1=CNC(=O)C[C@H]1c1ccc(F)cc1 [Compound 57, (S)-4-(4-Fluoro-phenyl)-6-oxo-1,4,5,6-tetrahydro-pyridine-3-carboxylic acid (2-methyl-5-thiazol-4-yl-phenyl)-amide]
7.87 | Cc1nc(-c2ccc(C)c(NC(=O)C3=CNC(=O)C[C@H]3c3ccc(F)cc3)c2)cs1 [Compound 58, (S)-4-(4-Fluoro-phenyl)-6-oxo-1,4,5,6-tetrahydro-pyridine-3-carboxylic acid [2-methyl-5-(2-methyl-thiazol-4-yl)-phenyl]-amide]
7.22 | Cc1ccc(-c2ccncc2)cc1NC(=O)C1=CNC(=O)C[C@H]1c1ccc(F)cc1 [Compound 59, (S)-4-(4-Fluoro-phenyl)-6-oxo-1,4,5,6-tetrahydro-pyridine-3-carboxylic acid (2-methyl-5-pyridin-4-yl-phenyl)-amide]
6.535 | CCn1c(C)nnc1-c1ccc(C)c(NC(=O)C2=CNC(=O)C[C@H]2c2ccc(F)cc2)c1 [Compound 60, (S)-4-(4-Fluoro-phenyl)-6-oxo-1,4,5,6-tetrahydro-pyridine-3-carboxylic acid [5-(4-ethyl-5-methyl-4H-[1,2,4]triazol-3-yl)-2-methyl-phenyl]-amide]
7.255 | Cc1ccc(-c2cc(C)n(C[C@H](O)CO)n2)cc1NC(=O)C1=CN(C)C(=O)C[C@H]1c1ccc(F)cc1 [Compound 61, (S)-4-(4-Fluoro-phenyl)-1-methyl-6-oxo-1,4,5,6-tetrahydro-pyridine-3-carboxylic acid {5-[1-((S)-2,3-dihydroxy-propyl)-5-methyl-1H-pyrazol-3-yl]-2-methyl-phenyl}-amide]
6.935 | Cc1ccc(-c2cc(C3CC3)[nH]n2)cc1NC(=O)C1=CNC(=O)C[C@H]1c1ccc(F)cc1 [Compound 62, (S)-4-(4-Fluoro-phenyl)-6-oxo-1,4,5,6-tetrahydro-pyridine-3-carboxylic acid [5-(5-cyclopropyl-1H-pyrazol-3-yl)-2-methyl-phenyl]-amide]
7.965 | Cc1ccc(-c2ccn(C)n2)cc1NC(=O)C1=CNC(=O)C[C@H]1c1cccc(F)c1 [Compound 63, (S)-4-(3-Fluoro-phenyl)-6-oxo-1,4,5,6-tetrahydro-pyridine-3-carboxylic acid [2-methyl-5-(1-methyl-1H-pyrazol-3-yl)-phenyl]-amide]
7.585 | Cc1ccc(-c2cc(C)n(C[C@@H](O)CO)n2)cc1NC(=O)C1=CN(C)C(=O)C[C@H]1c1ccc(F)cc1 [Compound 64, (S)-4-(4-Fluoro-phenyl)-1-methyl-6-oxo-1,4,5,6-tetrahydro-pyridine-3-carboxylic acid {5-[1-((R)-2,3-dihydroxy-propyl)-5-methyl-1H-pyrazol-3-yl]-2-methyl-phenyl}-amide]
7.705 | Cc1ccc(-c2ccn(C)n2)cc1NC(=O)C1=CNC(=O)C[C@H]1c1ccc(F)cc1 [Compound 65, (S)-4-(4-Fluoro-phenyl)-6-oxo-1,4,5,6-tetrahydro-pyridine-3-carboxylic acid [2-methyl-5-(1-methyl-1H-pyrazol-3-yl)-phenyl]-amide]
5.55 | Cc1ccc(-n2cnnc2)cc1NC(=O)C1=CNC(=O)C[C@H]1c1ccc(F)cc1 [Compound 66, (S)-4-(4-Fluoro-phenyl)-6-oxo-1,4,5,6-tetrahydro-pyridine-3-carboxylic acid (2-methyl-5-[1,2,4]triazol-4-yl-phenyl)-amide]
7.575 | CCn1c(=O)cnn(-c2ccc(C)c(NC(=O)C3=CNC(=O)C[C@H]3c3ccc(F)cc3)c2)c1=O [Compound 67, (S)-4-(4-Fluoro-phenyl)-6-oxo-1,4,5,6-tetrahydro-pyridine-3-carboxylic acid [5-(4-ethyl-3,5-dioxo-4,5-dihydro-3H-[1,2,4]triazin-2-yl)-2-methyl-phenyl]-amide]
7.01 | Cc1ccc(-n2ncc(=O)n(C)c2=O)cc1NC(=O)C1=CN(C)C(=O)C[C@H]1c1ccc(F)cc1 [Compound 68, (S)-4-(4-Fluoro-phenyl)-1-methyl-6-oxo-1,4,5,6-tetrahydro-pyridine-3-carboxylic acid [2-methyl-5-(4-methyl-3,5-dioxo-4,5-dihydro-3H-[1,2,4]triazin-2-yl)-phenyl]-amide]
